Data: patent US20110039825A1, “LIGANDS OF ALPHA-ADRENOCEPTORS, DOPAMINE, HISTAMINE, IMIDAZOLINE AND SEROTONIN RECEPTORS AND THEIR USE” (Alla Chem, LLC, priority 2007, published 2011)
pIC50, pKi: −log10 of the molar value.

Legend:
imidazoline receptor I2 = assay: radioligand binding to imidazoline receptor I2 ([3H] Idazoxan); parameters: species or system rat; details: 10 μM ligand
Procedure: Determination of investigated compounds' binding to imidazoline I2 receptor is carried out according to the method described in [Brown C M, MacKinnon A C, McGrath J C, Spedding M and Kilpatrick A T, a2-Adrenoceptor subtypes and imidazoline-like binding in the rat brain. Br J. Pharmacol. 99:803-809, 1990]. […] Idazoxan is used as positive control.

[1] = target: T1, recombinant human 5-HT2C receptor (Homo sapiens, UniProt P28335); assay: radioligand binding to serotonin receptor 5-HT2C ([3H] Mesulergine); details: for 5-HT2C % inhibition: 10 μM ligand
T1 construct: expressed in transfected cells; host or cells: CHO-K1
T1 sequence (P28335 33-458): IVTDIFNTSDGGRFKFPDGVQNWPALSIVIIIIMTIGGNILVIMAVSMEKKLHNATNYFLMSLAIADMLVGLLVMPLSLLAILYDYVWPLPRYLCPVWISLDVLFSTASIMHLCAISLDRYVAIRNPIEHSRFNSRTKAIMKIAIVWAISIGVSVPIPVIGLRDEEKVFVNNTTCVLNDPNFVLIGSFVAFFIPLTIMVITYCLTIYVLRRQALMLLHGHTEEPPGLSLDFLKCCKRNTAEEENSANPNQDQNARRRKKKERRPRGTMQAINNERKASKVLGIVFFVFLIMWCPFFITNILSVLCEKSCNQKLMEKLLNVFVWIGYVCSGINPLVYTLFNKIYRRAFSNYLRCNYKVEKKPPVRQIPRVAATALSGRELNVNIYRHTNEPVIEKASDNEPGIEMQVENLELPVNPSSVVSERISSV
Description: J. Neurochem. 69: 1449-1458, 1997]. […] SB242084 is used as positive control.

[2] = target: T2, recombinant human 5-HT2B receptor (Homo sapiens, UniProt P41595); assay: radioligand binding to serotonin receptor 5-HT2B ([3H] Lysergic acid diethylamide); details: 10 μM ligand
T2 construct: expressed in transfected cells; host or cells: CHO-K1
T2 sequence (P41595 whole entry): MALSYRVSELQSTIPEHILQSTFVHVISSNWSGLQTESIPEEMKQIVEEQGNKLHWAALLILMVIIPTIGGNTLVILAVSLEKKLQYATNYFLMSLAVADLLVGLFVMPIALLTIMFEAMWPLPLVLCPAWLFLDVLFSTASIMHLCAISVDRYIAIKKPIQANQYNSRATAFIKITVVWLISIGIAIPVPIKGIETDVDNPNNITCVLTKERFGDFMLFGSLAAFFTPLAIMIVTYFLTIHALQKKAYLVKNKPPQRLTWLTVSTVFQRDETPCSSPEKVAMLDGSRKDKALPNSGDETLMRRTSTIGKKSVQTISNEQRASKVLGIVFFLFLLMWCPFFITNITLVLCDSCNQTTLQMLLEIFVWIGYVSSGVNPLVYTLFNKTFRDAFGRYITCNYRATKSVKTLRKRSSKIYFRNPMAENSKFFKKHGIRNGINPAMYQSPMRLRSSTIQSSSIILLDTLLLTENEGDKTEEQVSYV
Procedure: Screening of the disclosed compounds for potential ability to interact with serotonin receptor 5-HT2A is carried out by method of radioligand binding. For this purpose membrane species are prepared from CHO-K1 cells comprising recombinant human 5-HT2B receptor by homogenization of recombinant cells in glass homogenizer with the subsequent separation of plasmatic membranes from cell nuclei, mitochondrias and cell wreckages by differential centrifugation. […] After incubation the samples are filtered in vacuo on glass-microfiber filters G/F (Millipor, USA), filters are washed three times with cold solution of medium and radioactivity is measured by scintillation counter MicroBeta 340 (Perkin Elmer, USA). […] Ketanserin is used as positive control. The tested compounds' binding to the receptor is determined by their ability to displace the radioligand and is expressed in percent of displacement (% I). Values of % I are calculated according to the following equation:
wherein: TA—is the overall radioactivity in the presence of radioligand only, CA—is the radioactivity in the presence of radioligand and tested compound and NA—is the radioactivity in the presence of radioligand and Serotonin (10 μM).

human α1D receptor = target: T3, human α1D receptor (Homo sapiens, UniProt P25100); assay: radioligand binding to adrenergic receptor α1D ([3H] Prazosin)
T3 construct: expressed in transfected cells; host or cells: HEK-293
T3 sequence (P25100 1-572): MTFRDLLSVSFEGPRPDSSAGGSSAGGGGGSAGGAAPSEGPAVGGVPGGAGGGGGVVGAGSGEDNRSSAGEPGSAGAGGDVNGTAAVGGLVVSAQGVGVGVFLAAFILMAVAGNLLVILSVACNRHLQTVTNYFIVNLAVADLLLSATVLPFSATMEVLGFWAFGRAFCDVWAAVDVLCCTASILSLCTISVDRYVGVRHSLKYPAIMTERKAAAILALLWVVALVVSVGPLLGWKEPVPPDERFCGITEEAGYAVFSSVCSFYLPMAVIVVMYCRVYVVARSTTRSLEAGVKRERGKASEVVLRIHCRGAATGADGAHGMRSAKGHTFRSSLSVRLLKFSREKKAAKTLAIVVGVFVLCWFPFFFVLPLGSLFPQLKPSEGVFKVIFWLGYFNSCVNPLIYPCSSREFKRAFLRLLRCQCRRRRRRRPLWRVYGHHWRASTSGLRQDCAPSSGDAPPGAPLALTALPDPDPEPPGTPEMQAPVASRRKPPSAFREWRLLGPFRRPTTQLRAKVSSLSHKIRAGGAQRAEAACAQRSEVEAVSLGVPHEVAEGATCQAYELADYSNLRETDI
Description: 6-C. […] For this purpose sDNA of human α1D receptor is expressed in HEK-293 cells, as it was described in [T L Theroux, T A Esbenshade, R D Peavy and K P Minneman. Coupling efficiencies of human alpha 1-adrenergic receptor subtypes: titration of receptor density and responsiveness with inducible and repressible expression vectors. Mol. Pharmacol.; 50: 1376-1387, 1996]. […] Prazosin is used as positive control.

human α2A receptor = target: T4, human α2A receptor (Homo sapiens, UniProt P08913); assay: radioligand binding to adrenergic receptor α2A ([3H] MK-912)
T4 construct: expressed in transfected cells; host or cells: Sf9
T4 sequence (P08913 1-465): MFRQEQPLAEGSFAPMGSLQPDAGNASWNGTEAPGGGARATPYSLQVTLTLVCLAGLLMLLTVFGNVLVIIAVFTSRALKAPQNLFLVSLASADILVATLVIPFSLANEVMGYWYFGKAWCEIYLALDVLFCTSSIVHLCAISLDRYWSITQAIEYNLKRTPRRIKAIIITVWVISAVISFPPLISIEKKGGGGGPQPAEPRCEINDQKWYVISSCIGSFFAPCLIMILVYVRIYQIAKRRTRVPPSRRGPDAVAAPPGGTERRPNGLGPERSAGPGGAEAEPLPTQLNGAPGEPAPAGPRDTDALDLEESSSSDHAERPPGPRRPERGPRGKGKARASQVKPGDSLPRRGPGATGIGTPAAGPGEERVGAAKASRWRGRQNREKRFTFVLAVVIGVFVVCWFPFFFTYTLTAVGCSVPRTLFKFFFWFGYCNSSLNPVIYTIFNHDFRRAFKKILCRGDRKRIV
Description: J Pharmacol ExpTher. […] Yohimbine is used as positive control.

adrenergic receptor α1B = target: T5, adrenergic receptor α1B (Rattus norvegicus, UniProt P15823); assay: radioligand binding to adrenergic receptor α1B ([3H] Prazosin)
T5 construct: membrane species from rat liver (rat of Wistar breed) are prepared; from tissue; host or cells: rat (Wistar) liver membranes
T5 sequence (P15823 1-515): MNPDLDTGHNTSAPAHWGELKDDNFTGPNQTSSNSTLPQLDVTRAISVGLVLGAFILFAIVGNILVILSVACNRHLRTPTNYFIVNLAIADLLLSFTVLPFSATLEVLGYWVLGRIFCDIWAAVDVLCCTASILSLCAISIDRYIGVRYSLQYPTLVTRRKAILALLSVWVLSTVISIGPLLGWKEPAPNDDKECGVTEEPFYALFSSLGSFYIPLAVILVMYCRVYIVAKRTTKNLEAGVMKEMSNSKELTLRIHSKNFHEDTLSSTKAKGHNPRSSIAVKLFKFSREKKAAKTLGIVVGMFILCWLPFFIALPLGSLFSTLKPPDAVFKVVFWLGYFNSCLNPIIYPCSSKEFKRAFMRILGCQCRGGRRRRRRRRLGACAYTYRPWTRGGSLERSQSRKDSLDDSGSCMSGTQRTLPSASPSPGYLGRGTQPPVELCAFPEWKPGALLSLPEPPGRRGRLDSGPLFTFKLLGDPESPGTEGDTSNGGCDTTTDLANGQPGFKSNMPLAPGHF
Description: Species heterogeneity of hepatic α1A-, α1B-, and α1C-subtypes. Biochem Biophys Res Commun. 186:760-7676 1992]. […] Prazosin is used as positive control.

adrenergic receptor α1A = target: T6, adrenergic receptor α1A (Rattus norvegicus, UniProt P43140); assay: radioligand binding to adrenergic receptor α1A ([3H] Prazosin)
T6 construct: membrane species from rat submaxillary glands (rat of Wistar breed) are prepared; from tissue; host or cells: rat (Wistar) submaxillary gland membranes
T6 sequence (P43140 1-466): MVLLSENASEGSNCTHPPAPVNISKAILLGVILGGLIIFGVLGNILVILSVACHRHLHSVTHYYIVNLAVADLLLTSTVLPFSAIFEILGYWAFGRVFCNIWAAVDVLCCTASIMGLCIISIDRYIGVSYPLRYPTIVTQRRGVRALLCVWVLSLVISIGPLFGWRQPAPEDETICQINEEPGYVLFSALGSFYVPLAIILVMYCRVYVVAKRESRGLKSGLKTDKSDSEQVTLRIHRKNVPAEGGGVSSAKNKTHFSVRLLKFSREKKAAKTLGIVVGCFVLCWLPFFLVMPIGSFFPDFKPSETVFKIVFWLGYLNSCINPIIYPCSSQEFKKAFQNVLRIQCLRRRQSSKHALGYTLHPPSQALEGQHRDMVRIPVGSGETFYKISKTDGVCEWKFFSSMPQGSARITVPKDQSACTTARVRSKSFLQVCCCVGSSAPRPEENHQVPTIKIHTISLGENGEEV
Procedure: Determination of investigated compounds' binding to α1A receptor was carried out according to the method described in [Michel A D, Loury D N and Whiting R l. Identification of a single α1A-adrenoceptor corresponding to the α1A-subtype in rat submaxillary gland. Br J. Pharmacol. 98:883-889, 1989]. […] Prazosin is used as positive control.

human 5-HT7 receptor = target: T7, human 5-HT7 receptor (Homo sapiens, UniProt P34969); assay: radioligand binding to serotonin receptor 5-HT7 ([3H] Lysergic acid diethylamide); details: 10 μM ligand
T7 construct: expressed in transfected cells; host or cells: CHO
T7 sequence (P34969 whole entry): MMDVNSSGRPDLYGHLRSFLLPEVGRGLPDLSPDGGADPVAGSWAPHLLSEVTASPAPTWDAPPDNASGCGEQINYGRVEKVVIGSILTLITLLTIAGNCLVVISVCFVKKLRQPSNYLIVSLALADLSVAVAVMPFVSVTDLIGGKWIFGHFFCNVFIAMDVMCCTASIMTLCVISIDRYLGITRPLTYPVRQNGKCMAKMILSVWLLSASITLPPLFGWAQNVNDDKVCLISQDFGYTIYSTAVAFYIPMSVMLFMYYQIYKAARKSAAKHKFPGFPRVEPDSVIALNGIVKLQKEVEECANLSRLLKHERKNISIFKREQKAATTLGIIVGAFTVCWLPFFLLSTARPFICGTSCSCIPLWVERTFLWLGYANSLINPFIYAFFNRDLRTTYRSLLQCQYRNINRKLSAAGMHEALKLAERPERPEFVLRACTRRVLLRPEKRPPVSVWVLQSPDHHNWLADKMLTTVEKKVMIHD
Description: For this purpose sDNA of human 5-HT7 receptor is expressed in CHO cells as it was described in [Shen Y, Monsma F J Jr, Metcalf M A, Jose P A, Hamblin M W, and Sibley DR. […] J. Biol. Chem. 1993, 268, 18200-18204]. […] J. Pharmacol. Exp. Ther. 1994, 268:1403-1410]. […] Methiothepin is used as positive control.

recombinant human 5-HT1A = target: T8, recombinant human 5-HT1A (Homo sapiens, UniProt P08908); assay: radioligand binding to serotonin receptor 5-HT1A ([3H] 8-OH-DPAT); details: for 5-HT1A % inhibition: 10 μM ligand; for inhibition at 1 µM: ligand concentration 1 μM
T8 construct: expressed in transfected cells; host or cells: CHO
T8 sequence (P08908 1-422): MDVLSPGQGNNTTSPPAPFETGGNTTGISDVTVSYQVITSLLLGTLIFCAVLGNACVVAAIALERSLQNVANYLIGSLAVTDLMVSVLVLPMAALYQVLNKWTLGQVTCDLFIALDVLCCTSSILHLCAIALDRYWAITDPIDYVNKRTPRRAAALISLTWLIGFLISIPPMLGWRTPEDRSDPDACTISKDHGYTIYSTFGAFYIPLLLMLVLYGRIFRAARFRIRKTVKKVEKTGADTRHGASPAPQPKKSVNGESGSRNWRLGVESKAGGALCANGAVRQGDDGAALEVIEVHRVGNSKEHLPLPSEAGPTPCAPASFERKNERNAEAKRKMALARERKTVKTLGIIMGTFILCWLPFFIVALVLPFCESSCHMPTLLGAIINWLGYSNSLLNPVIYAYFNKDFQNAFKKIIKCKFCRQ
Description: J Pharmacol Exp Ther. 306(1): 301-309, 2003]. […] Metergoline is used as positive control.

[3] = target: T9, recombinant human 5-HT6 receptor (Homo sapiens, UniProt P50406); assay: radioligand binding to serotonin receptor 5-HT6 ([3H] Lysergic acid diethylamide); details: for 5-HT6 % inhibition: 10 μM ligand
T9 construct: expressed in transfected cells; host or cells: HeLa
T9 sequence (P50406 whole entry): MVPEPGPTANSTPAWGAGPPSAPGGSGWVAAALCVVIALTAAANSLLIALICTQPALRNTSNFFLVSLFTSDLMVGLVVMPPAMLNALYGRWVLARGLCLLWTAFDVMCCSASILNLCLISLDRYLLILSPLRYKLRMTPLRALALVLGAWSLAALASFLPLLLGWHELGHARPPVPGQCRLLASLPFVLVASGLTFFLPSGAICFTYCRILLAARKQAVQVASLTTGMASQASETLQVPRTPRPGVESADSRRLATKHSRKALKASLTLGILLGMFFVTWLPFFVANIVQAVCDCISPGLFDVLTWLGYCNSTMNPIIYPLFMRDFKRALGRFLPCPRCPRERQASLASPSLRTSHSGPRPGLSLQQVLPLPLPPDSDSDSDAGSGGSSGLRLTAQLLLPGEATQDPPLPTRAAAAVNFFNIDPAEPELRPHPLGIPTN
Description: Mol. Pharmacol. 43:320-327, 1993]. […] Methiothepin is used as positive control.

Cc1ccc2c(c1)[C@@H]1CN(C)CCC[C@@H]1N2CCc1cccnc1.Cl.Cl.Cl (relative stereo) [1.6.1(1)•3HCl]
imidazoline I2 receptor % inhibition (imidazoline receptor I2): 80%

CN1CCc2c(c3cc(F)ccc3n2C#Cc2ccccc2)C1 [1.1(2)]
5-HT2C % inhibition [1]: 100% | 5-HT2B % inhibition [2]: 92%

Cc1ccc(CCn2c3c(c4cc(C)ccc42)CN(C)CC3)cc1 [1.1.2(1-3), 2,8-dimethyl-5-[2-(4-methylphenyl)-ethyl]-1,2,3,4-tetrahydro-1H-pyrido[4,3-b]indole]
pIC50 (human α1D receptor): 7.21 | pKi (human α1D receptor): 7.52 | pIC50 (human α2A receptor): 8.33 | pKi (human α2A receptor): 8.75 | pIC50 (adrenergic receptor α1B): 7.77 | pKi (adrenergic receptor α1B): 8.03 | pIC50 (adrenergic receptor α1A): 7.33 | pKi (adrenergic receptor α1A): 7.72

CN1CCc2c(c3cc(C(F)(F)F)ccc3n2CCc2ccccc2)C1.Cl [1.1.2(1-7)•HCl, 2-methyl-8-trifluoromethyl-5-phenethyl-1,2,3,4-tetrahydro-1H-pyrido[4,3-b]indole]
5-HT7 % inhibition (human 5-HT7 receptor): 94%

CN1CCc2c(c3cc(F)ccc3n2CC(O)c2ccccc2)C1 (centres unmarked) [1.1.2(1-9)]
5-HT2C % inhibition [1]: 89% | 5-HT2B % inhibition [2]: 50%

Cc1ccc2c(c1)c1c(n2CC(O)c2ccccc2)CCN(C)C1 (centres unmarked) [1.1.2(1-10), 2,8-dimethyl-5-[(2-phenyl-2-hydroxy)ethyl]-1,2,3,4-tetrahydro-1H-pyrido[4,3-b]indole]
5-HT2C % inhibition [1]: 96% | 5-HT2B % inhibition [2]: 79%

COc1ccc(CCn2c3c(c4cc(C)ccc42)CN(C)CC3)cc1.Cl [1.1.2(1-14)•HCl]
5-HT7 % inhibition (human 5-HT7 receptor): 100% | 5-HT1A % inhibition (recombinant human 5-HT1A): 57% | 5-HT6 % inhibition [3]: 108%

Cc1ccc2c(c1)c1c(n2CCc2ccc(F)cc2)CCN(C)C1.Cl [1.1.2(1-16)•HCl]
5-HT7 % inhibition (human 5-HT7 receptor): 95% | 5-HT1A % inhibition (recombinant human 5-HT1A): 37% | 5-HT6 % inhibition [3]: 103%

Cc1ccc2c(c1)c1c(n2CCc2ccc(C(F)(F)F)cc2)CCN(C)C1.Cl [1.1.2(1-18)•HCl]
5-HT7 % inhibition (human 5-HT7 receptor): 103% | 5-HT1A % inhibition (recombinant human 5-HT1A): 53%

Cc1ccc2c(c1)c1c(n2CCc2ccc(C)nc2)CCCN(C)C1 [1.2.2(4-1)]
imidazoline I2 receptor % inhibition (imidazoline receptor I2): 80%

Cc1ccc(CCn2c3c(c4cc(F)ccc42)CN(C)CCC3)cn1 [1.2.2(4-2)•2HCl]
inhibition at 1 µM (recombinant human 5-HT1A): 31%

Cc1ccc2c(c1)c1c(n2CCc2ccncc2)CCCN(C)C1 [1.2.2(5-2)]
inhibition at 1 µM ([1]; ligand concentration 1 μM): 92% | α-Adrenoceptor α2A, % inhibition (human α2A receptor; 10 μM ligand): 74% | inhibition at 1 µM (recombinant human 5-HT1A): 13% | inhibition at 1 µM ([3]; ligand concentration 1 μM, read-out: 5-HT6 % inhibition): 84%

CN1CCc2c(c3cc(F)ccc3n2CCCc2ccccc2)C1.Cl [1.3.3(8)•HCl]
5-HT7 % inhibition (human 5-HT7 receptor): 83% | 5-HT1A % inhibition (recombinant human 5-HT1A): −4%

CN1CCc2c(c3cc(F)ccc3n2Cc2ccccc2)C1.Cl [1.9(3)•HCl]
5-HT7 % inhibition (human 5-HT7 receptor): 81%

Cc1ccc2c(c1)c1c(n2Cc2ccccc2)CCCN(C)C1.Cl [1.10(4)•HCl]
5-HT7 % inhibition (human 5-HT7 receptor): 75% | 5-HT1A % inhibition (recombinant human 5-HT1A): 19%
